Results taken from US20190375787A1, “PEPTIDOMIMETICS AND THEIR USE IN THERAPY” (INSTYTUT […]. Z O.O., priority 2016, published 2019).
Square brackets hold non-standard residues; d marks the D form. Peptide text beside a SMILES is read from it. * marks the point of attachment. X1 = C(=Cc1ccccc1)CN1CCN(*)CC1

Columns and labels:
Type in all cases: cell-based
[1] = tested on: human pancreatic cancer cell line CFPAC-1; test: MTS cell viability test on CFPAC-1 cells; settings: 24 h incubation; for activity (cell viability) compared with gem and 5FU: CFPAC-1, concentrations 0.01-0.1 mM; for activity relative to the reference drugs (gem, 5FU): CFPAC-1, higher concentrations (above 0.1 mM)
Description: Phenylalanyl-trans-1-cinnamylpiperazine was acylated with t-Boc-Tyr-D-Ala using TBTU/DIPEA methodology. The reaction product was precipitated with 10% NaHCO3 and separated from the reaction mixture by filtration. The solid was washed three times with water, until neutral pH of the filtrate was reached. The t-butyloxycarbonyl group was removed using TFA:DCM (1:1). The crude product was purified by preparative HPLC in a gradient of water/methanol with addition of 0.1% trifluoroacetic acid. The counterion was changed to Cl^− using the Dowex ion-exchange resin. The purified product, tyrosyl-D-alanyl-phenylalanyl-cinnamylpiperazine hydrochloride (further called TyrDAlaPheCyn) was tested on human pancreatic cancer cell line CFPAC-1, in comparison to commercial drugs, gemcitabine (gem) and 5-fluorouracil (5FU). The cells were grown on IMDM medium supplemented with 10% (v/v h.i. FBS, 2 mM L-glutamine and 1% (v/v) penicillin-streptomycin, in 37° C., in humidified atmosphere, with 5% CO2. The cells were seeded in 96 wells plate (3×10^3 cells per well) and incubated for 24 h (37° C., 5% CO2) in the culture medium. Next, TyrDAlaPheCyn, gem and 5FU in 5% DMSO solutions were added, to give in wells concentrations 0 (5% DMSO); 0.01; 0.05; 0.1; 0.5; and 1 mM. The plates were incubated for 24 h (37° C., 5% CO2). Cell viability was determined using colorimetric test MTS (3-(4,5-dimethylthiazol-2-yl)-5-(3-carboxymethoxyphenyl)-2-(4-sulfophenyl)-2H-tetrazolium). To each well, 20 μl of the reagent was added, and the plates were incubated in the same conditions for 1 h. The absorbance intensity at 490 nm was read. […] However, at higher concentrations, activity of the tested compound was even 4 times higher than for the reference drugs.
Tryptophyl-trans-1-cinnamylpiperazine was acylated with t-Boc-Tyr-D-Ala using TBTU/DIPEA methodology. The reaction product was precipitated with 10% NaHCO3 and separated from the reaction mixture by filtration. The solid was washed three times with water, until neutral pH of the filtrate was reached. The t-butyloxycarbonyl group was removed using TFA:DCM (1:1). […] The cells were grown on DMDM medium supplemented with 10% (v/v h.i. FBS, 2 mM L-glutamine and 1% (v/v) penicillin-streptomycin, in 37° C., in humidified atmosphere, with 5% CO2. The cells were seeded in 96 wells plate (3×10^3 cells per well) and incubated for 24 h (37° C., 5% CO2) in the culture medium. Next, TyrDAlaTrpCyn, gem and 5FU in 5% DMSO solutions were added, to assure in wells concentrations 0 (5% DMSO); 0.01; 0.05; 0.1; 0.5; and 1 mM. The plates were incubated for 24 h (37° C., 5% CO2). Cell viability was determined using colorimetric test MTS (3-(4,5-dimethylthiazol-2-yl)-5-(3-carboxymethoxyphenyl)-2-(4-sulfophenyl)-2H-tetrazolium). […] The absorbance intensity at 490 nm was read. […]

[2] = tested on: SW620 (intestinal cancer); test: Cell growth, colorimetric MTT or XTT, SW620
Protocol: (§1) Influence of the compounds on the cell growth was evaluated by colorimetric method, using MTT or XTT reagent, values of IC50 were determined. The tests were based on reduction of the salt by mitochondrial dehydrogenase from metabolically active cells. The colored product of the reaction was determined colorimetrically, and in result the number of living cells was assigned.

[3] = tested on: SW620 (intestinal cancer) cells; test: Inhibition of cell migration (transwell insert), SW620; settings: SW620, IC50 concentration
Protocol: (§2) Inhibition of cell migration was evaluated using 24-well plates with PET (polyethylene terephthalate) membrane transwell insert. The experiment was performed using IC50 concentrations of the tested compounds, and migration of the cells, that means, the number of the cells passing through the membrane to the bottom side of the membrane, was observed. The cells which passed the membrane, were stained with crystal violet and counted.

[4] = tested on: SW480 (intestinal cancer) cells; test: Inhibition of cell migration (transwell insert), SW480; settings: SW480, IC50 concentration
Protocol: as §2

[5] = tested on: HT29 (intestinal cancer) cells; test: Inhibition of cell migration (transwell insert), HT29; settings: HT29, IC50 concentration, concentrations below 400 μM
Protocol: as §2

[6] = tested on: Colo205 (intestinal cancer) cells; test: Inhibition of cell migration (transwell insert), Colo205; settings: Colo205, IC50 concentration, concentrations below 400 μM
Protocol: as §2

[7] = tested on: Colo205 (intestinal cancer); test: Cell growth, colorimetric MTT or XTT, Colo205
Protocol: as §1

HT29 (intestinal cancer) = test: Cell growth, colorimetric MTT or XTT, HT29
Protocol: as §1

SMILES	activity (cell viability) compared with gem and 5FU [1]	activity relative to the reference drugs (gem, 5FU) [1] [times]	IC50 [2] [µM]	inhibition of cell migration ([4]; concentrations below 400 μM) [%]	inhibition of cell migration [5] [%]	inhibition of cell migration [6] [%]	further results
C[C@@H](NC(=O)[C@@H](N)Cc1ccc(O)cc1)C(=O)N[C@@H](Cc1ccccc1)C(=O)N1CCN(CC=Cc2ccccc2)CC1.Cl [TyrDAlaPheCyn, tyrosyl-D-alanyl-phenylalanyl-cinnamylpiperazine hydrochloride]	similar	4					
C[C@@H](NC(=O)[C@@H](N)Cc1ccc(O)cc1)C(=O)NCC(=O)N[C@@H](Cc1ccccc1)C(=O)N1CCN(CC=Cc2ccccc2)CC1.Cl [TyrDAlaGlyPheCyn, tyrosyl-D-alanyl-glicyl-phenylalanyl-1-cinnamylpiperazine hydrochloride]			< 450	≤ 60	≤ 70	≤ 60	inhibition of cell migration ([3]; concentrations below 450 μM): ≤ 40%
C[C@@H](NC(=O)[C@@H](N)Cc1ccc(O)cc1)C(=O)NCC(=O)N[C@@H](Cc1c[nH]c2ccccc12)C(=O)N1CCN(CC=Cc2ccccc2)CC1.Cl [TyrDAlaGlyTrpCyn, tyrosyl-D-alanyl-glicyl-tryptophyl-1-cinnamylpiperazine hydrochloride] (H-Y[dA]GW-X1)			< 500	≤ 30	≤ 50	≤ 40	inhibition of cell migration ([3]; concentrations below 500 μM): ≤ 30%
C[C@H](O)[C@@H](NC(=O)[C@@H](N)Cc1ccc(O)cc1)C(=O)NCC(=O)N[C@@H](Cc1ccccc1)C(=O)N1CCN(CC=Cc2ccccc2)CC1.Cl [TyrDThrGlyPheCyn, tyrosyl-D-threonyl-glicyl-phenylalanyl-1-cinnamylpiperazine hydrochloride] (H-Y[dT]GF-X1)			< 650				inhibition of cell migration ([4]; concentrations below 500 μM): ≤ 45%
C[C@@H](NC(=O)[C@@H](N)Cc1ccc(O)cc1)C(=O)N[C@@H](Cc1c[nH]c2ccccc12)C(=O)N1CCN(CC=Cc2ccccc2)CC1.Cl [TyrDAlaTrpCyn, tyrosyl-D-alanyl-tryptophyl-cinnamylpiperazine hydrochloride]	similar	4					
C[C@H](O)[C@@H](NC(=O)[C@@H](N)Cc1ccc(O)cc1)C(=O)NCC(=O)N[C@@H](Cc1c[nH]c2ccccc12)C(=O)N1CCN(CC=Cc2ccccc2)CC1.Cl [TyrDThrGlyTrpCyn, tyrosyl-D-threonyl-glicyl-tryptophyl-1-cinnamylpiperazine hydrochloride] (H-Y[dT]GW-X1)			< 600				IC50 [7]: < 650 µM; inhibition of cell migration ([3]; concentrations below 600 μM): ≤ 30%; inhibition of cell migration ([4]; concentrations below 600 μM): ≤ 40%; IC50 (HT29 (intestinal cancer)): < 600 µM
